What all share (assay): MIC / synergy test of MIT and IPBC mixtures in Sabouraud maltose broth
Type in all cases: cell-based

In one test the test system is Penicillium funiculosum. Particulars: for MIC at IPBC concentration Qb: IPBC part of the MIC pair; for MIC value: biocide used alone; for Synergy index Qa/QA + Qb/QB: method of Kull et al.; for MIC at MIT concentration Qa: MIT part of the MIC pair. As for the experimental part:
(§1) The calculation of the synergy index is performed according to the method by F. C. Kull et al., Applied Microbiology, vol. 9 (1961), p. 538. The synergy index is calculated here using the following formula: Synergy index SI=Qa/QA+Qb/QB.
(§2) When this formula is used for the biocide system tested here, the variables in the formula have the following meaning: • […]=Concentration of MIT in biocide mixture of MIT and IPBC • QA=Concentration of MIT as the only biocide • Qb=Concentration of IPBC in biocide mixture of MIT and IPBC • QB=Concentration of IPBC as the only biocide
(§3) When the synergy index has a value of less than 1, that means that a synergy of the two biocides exists.
The test arrangement again included a Sabouraud maltose broth as culture medium. The cell density was 10^6 germs/ml. The incubation time was 72 hours at 25° C. Every sample was incubated at 120 r.p.m. on an incubation shaker.
Example 5 was repeated with the change that the incubation time was 96 hours instead of 72 hours.

The next test relates to Aspergillus niger. The note with it: 96 hours; for MIC value: biocide used alone; for Synergy index Qa/QA + Qb/QB: method of Kull et al. The procedure:
as §1, §2, §3
(§4) The test arrangements again included a Sabouraud maltose broth as culture medium. The cell density was 10^6 cells/ml. The incubation time was 96 hours at 25° C. Every sample was incubated at 120 r.p.m. on an incubation shaker.

The subject of another test is Candida valida. Particulars: 96 hours; for MIC value: biocide used alone; for Synergy index Qa/QA + Qb/QB: method of Kull et al. The procedure: as §1, §2, §3, §4
The test system of another test is Saccharomyces cerevisiae. The note with it: for MIC at IPBC concentration Qb: IPBC part of the MIC pair; for MIC value: biocide used alone; for Synergy index Qa/QA + Qb/QB: method of Kull et al.; for MIC at MIT concentration Qa: MIT part of the MIC pair. As for the experimental part: For that purpose, aqueous mixtures with different concentrations of 2-methylisothiazolin-3-one (MIT) and 3-iodo-2-propynyl-N-butylcarbamate (IPBC) were produced and the effects of those mixtures on Saccharomyces cerevisiae were tested.
In addition to the biocide components and water, the aqueous mixtures also contained a nutrient medium, specifically a Sabouraud maltose broth (trade product “Merck No. 10393”). The cell density of Saccharomyces cerevisiae was 10^6 cells/ml. The incubation time was 72 hours at 25° C. Each sample was incubated at 120 r.p.m. on an incubation shaker.
as §1, §2, §3
Example 1 was repeated with the change that the incubation time was 96 hours instead of 72 hours.

The structures appear in SMILES notation.

In the case of `CCCCNC(=O)OCC#CI` [IPBC, 3-iodo-2-propynyl-N-butylcarbamate], the “MIC at IPBC concentration Qb” value worked out at 1.5 ppm in the test on Penicillium funiculosum (72 hours); 1.5 ppm with Penicillium funiculosum (96 hours); 5 ppm in the test with Aspergillus niger (IPBC part of the MIC pair); 2.5 ppm in the test with Candida valida (IPBC part of the MIC pair); 10 ppm in the test with Saccharomyces cerevisiae (72 hours); 10 ppm in the test with Saccharomyces cerevisiae (96 hours). Also, the MIC value came to 1.5 ppm in the test with Penicillium funiculosum (72 hours); 1.5 ppm in the test with Penicillium funiculosum (96 hours); 5 ppm with Aspergillus niger; 2.5 ppm with Candida valida; 10 ppm with Saccharomyces cerevisiae (72 hours); 10 ppm in the test with Saccharomyces cerevisiae (96 hours). The “Synergy index Qa/QA + Qb/QB” value in the test with Penicillium funiculosum (72 hours), in the test on Penicillium funiculosum (96 hours), in the test on Aspergillus niger, with Candida valida, in the test on Saccharomyces cerevisiae (72 hours) and in the test on Saccharomyces cerevisiae (96 hours) was 1.00 in each case.

`Cn1sccc1=O` [MIT, 2-methylisothiazolin-3-one]: the “MIC at MIT concentration Qa” value in the test on Penicillium funiculosum (72 hours) is 200 ppm; in the test with Penicillium funiculosum (96 hours), 200 ppm; in the test on Aspergillus niger (MIT part of the MIC pair) it was 750 ppm; with Candida valida (MIT part of the MIC pair), 75 ppm; with Saccharomyces cerevisiae (72 hours), 150 ppm; with Saccharomyces cerevisiae (96 hours) it was 150 ppm. In addition, the MIC value with Penicillium funiculosum (72 hours) was determined as 200 ppm; with Penicillium funiculosum (96 hours), 200 ppm; in the test on Aspergillus niger, 750 ppm; in the test on Candida valida, 75 ppm; in the test with Saccharomyces cerevisiae (72 hours) it was 150 ppm; in the test on Saccharomyces cerevisiae (96 hours) it was 150 ppm. The “Synergy index Qa/QA + Qb/QB” value in the test on Penicillium funiculosum (72 hours), with Penicillium funiculosum (96 hours), in the test on Aspergillus niger, in the test with Candida valida, in the test on Saccharomyces cerevisiae (72 hours) and in the test on Saccharomyces cerevisiae (96 hours) was 1.00 each time.
